This passage reports inhibition results from article PMC6934184, “Selective DNA-PKcs inhibition extends the therapeutic index of localized radiotherapy and chemotherapy” (The Journal of Clinical Investigation, 2019).

The target in the experiment is T1, TLK1 (Homo sapiens, UniProt Q9UKI8).
T1 construct: purchased Thermo Fisher Scientific (Life Technologies) SelectScreen
In words: SelectScreen LanthaScreen. Type of experiment: binding. The settings on record: read-out: % displacement. The gist of the method: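 Percent values come from Thermo SelectScreen profiling of NU5455, combining activity and binding assays. CSF1R was run in Z'LYTE format at Km app ATP, and CAMK1 in Adapta format with ATP listed at 10.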

Structures are written as SMILES.

T1 sequence (Q9UKI8 whole entry): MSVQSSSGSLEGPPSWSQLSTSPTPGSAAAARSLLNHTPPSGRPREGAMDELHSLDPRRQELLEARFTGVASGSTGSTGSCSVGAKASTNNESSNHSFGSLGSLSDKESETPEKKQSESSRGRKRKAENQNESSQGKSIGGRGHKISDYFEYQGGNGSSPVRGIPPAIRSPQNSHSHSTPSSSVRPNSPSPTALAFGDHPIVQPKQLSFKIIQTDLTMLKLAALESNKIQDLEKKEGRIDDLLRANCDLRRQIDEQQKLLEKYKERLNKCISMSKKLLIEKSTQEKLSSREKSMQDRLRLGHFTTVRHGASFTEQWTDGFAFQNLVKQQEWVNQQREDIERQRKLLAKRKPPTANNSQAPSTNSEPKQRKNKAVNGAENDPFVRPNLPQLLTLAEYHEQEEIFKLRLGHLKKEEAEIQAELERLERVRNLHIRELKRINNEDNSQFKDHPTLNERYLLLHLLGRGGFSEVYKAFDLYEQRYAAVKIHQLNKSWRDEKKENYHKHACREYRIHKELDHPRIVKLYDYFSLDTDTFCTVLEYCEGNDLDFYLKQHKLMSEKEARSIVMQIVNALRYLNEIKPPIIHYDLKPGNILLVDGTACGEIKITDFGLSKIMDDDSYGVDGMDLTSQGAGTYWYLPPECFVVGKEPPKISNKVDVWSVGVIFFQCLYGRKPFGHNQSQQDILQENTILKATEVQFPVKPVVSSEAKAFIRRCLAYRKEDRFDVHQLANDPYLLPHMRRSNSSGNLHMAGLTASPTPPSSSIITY

On to `CN(C(=O)CN1CCOCC1)c1ccc2sc3c(-c4cccc5c(=O)cc(N6CC7CCC(C6)O7)oc45)cccc3c2c1` [NU5455], for which the inhibition at 1 µM is -0.8%.
